{"source": "paper PMC4826872", "about": "“Underlying Resistance Mechanisms in the Cynosurus echinatus Biotype to Acetyl CoA Carboxylase-Inhibiting Herbicides” (Frontiers in Plant Science, 2016)", "biological_target": "T1, ACCase (chloroplastic acetyl coenzyme A carboxylase)", "T1 construct": "plastid and cytosolic forms not separated; S biotype has Arg1789, Met2065, Gly2067, Val2077", "experiment": "NaH14CO3 incorporation into acid-stable product (malonyl-CoA)", "assay_type": "biochemical, Cynosurus echinatus", "conditions": "5 mM acetyl-CoA, 1.5 mM ATP, 5 mM MgCl2, 15 mM bicarbonate, pH 8.3, 34°C, read-out: I50", "from_the_text": "NaH14CO3 incorporation into acid-stable product (malonyl-CoA) on ACCase (chloroplastic acetyl coenzyme A carboxylase)", "note": "Read-outs that look alike come from different tables or passages of the source.", "data": [{"smiles": "CCCC(=NOCC)C1=C(O)CC(CC(C)SCC)CC1=O", "note": "(stereo not drawn) [Setoxidim]", "values": [{"measurement": "IC50", "setting": "R biotype, stated gain", "value": 3500, "unit": "µM"}, {"measurement": "IC50", "setting": "S biotype", "value": 800, "unit": "µM"}]}, {"smiles": "CCCC(=NOCC)C1=C(O)CC(C2CCCSC2)CC1=O", "note": "(stereo not drawn) [Cycloxidim]", "values": [{"measurement": "IC50", "setting": "R biotype, stated gain", "value": 7.89, "unit": "µM"}, {"measurement": "IC50", "setting": "S biotype", "value": 2.5, "unit": "µM"}]}, {"smiles": "CCc1cc(C)cc(CC)c1-c1c(OC(=O)C(C)(C)C)n2n(c1=O)CCOCC2", "note": "[Pinoxaden]", "values": [{"measurement": "IC50", "setting": "R biotype, stated gain", "value": 9.1, "unit": "µM"}, {"measurement": "IC50", "setting": "S biotype", "value": 0.39, "unit": "µM"}]}, {"smiles": "C[C@@H](Oc1ccc(Oc2ccc(C#N)cc2F)cc1)C(=O)O", "note": "[Cihalofop]", "values": [{"measurement": "IC50", "setting": "R biotype, stated gain", "value": 70.8, "unit": "µM"}, {"measurement": "IC50", "setting": "S biotype", "value": 10.2, "unit": "µM"}]}, {"smiles": "CC(Oc1ccc(Oc2ccc(Cl)cc2Cl)cc1)C(=O)O", "note": "(stereo not drawn) [Diclofop]", "values": [{"measurement": "IC50", "setting": "R biotype, stated gain", "value": 63.5, "unit": "µM"}, {"measurement": "IC50", "setting": "S biotype", "value": 4.53, "unit": "µM"}]}, {"smiles": "CC(Oc1ccc(Oc2nc3ccc(Cl)cc3o2)cc1)C(=O)O", "note": "(racemic) [Fenoxaprop]", "values": [{"measurement": "IC50", "setting": "R biotype, stated gain", "value": 24.2, "unit": "µM"}, {"measurement": "IC50", "setting": "S biotype", "value": 1.58, "unit": "µM"}]}]}
